According to ChEMBL document CHEMBL1150192, “Tetracyclic Triterpenoids of the Fruit Coats of Azadirachta indica” (J Nat Prod, 1991):
Activity calls are given as the source filed them.

Columns and labels:
Assay type in all cases: functional, organism-based
Klebsiella pneumoniae = assay: Antimicrobial activity against Klebsiella pneumoniae
Streptococcus pyogenes = assay: Antimicrobial activity against Streptococcus pyogenes
Staphylococcus = assay: Antimicrobial activity against Staphylococcus citreus
Escherichia coli = assay: Antimicrobial activity against Escherichia coli
Bacillus subtilis = assay: Antimicrobial activity against Bacillus subtilis
[1] = test system: Salmonella enterica subsp. enterica serovar Typhi str. CT18; assay: Antimicrobial activity against Salmonella typhi
Shigella sonnei = assay: Antimicrobial activity against Shigella sonnei
Bacillus pumilus = assay: Antimicrobial activity against Bacillus pumilus
Serratia marcescens = assay: Antimicrobial activity against Serratia marcescens
Proteus vulgaris = assay: Antimicrobial activity against Proteus vulgaris
Staphylococcus aureus = assay: Antimicrobial activity against Staphylococcus aureus
Salmonella paratyphi = assay: Antimicrobial activity against Salmonella paratyphi A; conditions: Salmonella enterica subsp. enterica serovar Paratyphi A
Salmonella = assay: Antimicrobial activity against Salmonella schottmuelleri
Shigella dysenteriae = assay: Antimicrobial activity against Shigella dysenteriae
[2] = test system: Staphylococcus epidermidis; assay: Antimicrobial activity against Staphylococcus epidermidis

Measured: Activity

CC(=O)O[C@@H]1C[C@H]2C(C)(C)C(=O)C=C[C@]2(C)[C@H]2CC[C@]3(C)C(=CC[C@H]3[C@@H](CO)C[C@H](O)C(=O)C(C)(C)O)[C@@]21C
inactive: all assays above
